Experimental data reported in patent publication US11835523B2, “Assays for improving automated antimicrobial susceptibility testing accuracy” (priority 2018, dated 2023).

Legend:
Type in all cases: cell-based
beta lactamase = experiment: Beta-lactamase inhibitor assay with nitrocefin probe (Example 1, FIG. 1); details: 4 μg/mL inhibitor, 0.25 mg/mL nitrocefin, 35° C., 4 hours
Description: By comparing the signal from an “inhibited” well to one containing the probe and microbes alone, the efficacy of the inhibitor may be tested.
Microbes were prepared by diluting colonies into saline to reach a McFarland value of 0.5, which was verified using a spectrophotometer. This was diluted 1:20 into saline and 50 μI of inoculum was added to wells of a 384-well plate. For each strain, 25 μI of solutions containing either 0.25 mg/mL nitrocefin alone (Nitro), 0.25 mg/mL nitrocefin and 4 μg/mL clauvulanate (Nitro Clay), or 0.25 mg/mL nitrocefin and 4 μg/mL tazobactam (Nitro Tazo) were added to duplicate wells. Inoculated plates were incubated at 35° C., shaking at 150 rpm for 4 hours. Absorbance was read at 490 nm and values shown in FIG. 1 are the absorbance in the indicated condition minus the absorbance from microbial inoculum alone without nitrocefin. A greater value indicates microbial ability to degrade nitrocefin, and thus, the presence of a beta lactamase. A reduction in absorbance value in the presence of an inhibitor indicates the beta lactamase present is sensitive to the inhibitor.

E. coli = experiment: Acidimetric carbapenemase assay, four wells, intact microbes (Example 2); parameters: key: Normalized activity = (Well1−Well2)−(Well3−Well4), pH indicator signal; details: 5 mg/mL imipenem solution added 1:1, 4 hours
Source text: (§1) In an exemplary embodiment, the assay comprises a minimum of 4 wells and utilizes a sample comprising intact microbes. The first well (Well1) comprises a medium such as a buffered saline solution or a nutrient broth, a carbapenem, ionic zinc, and a pH indictor. The second well (Well2) comprises the medium, a carbapenem, ionic zinc, a pH indictor, and a microbe sample comprising <1×10^8 CFU microbes. The third well (Well3) comprises the medium, ionic zinc, and a pH indictor. The fourth well (Well4) comprises the medium, ionic zinc, a pH indictor, and a microbe sample comprising <1×10^8 CFU microbes. The following formula can then be utilized to normalize the result: Normalized Activity=(Well1−Well2)−(Well3−Well4) [Formula 1]
(§2) The above says that imipenem degradation is the change in pH (e.g. loss of signal) due to the presence of microbes less the change in pH (e.g. loss of signal) due to microbes in solution only.
(§3) Example 2. Microbes were prepared by diluting colonies into saline to reach a McFarland value of 0.5, which was verified using a spectrophotometer. 100 μL of the microbe solution was added to each of 2 wells in a 96-well plate. 100 μL of saline was added to 2 separate wells on the plate. 100 μL of an imipenem solution containing 5 mg/mL imipenem, 0.1 mM ZnSO4, and 10 μM Fluorescein Na salt, pH 8, was added to one of the microbe-containing wells (Well2) and one of the saline wells (Well1). 100 μL of a negative control solution containing 0.1 mM ZnSO4, and 10 μM Fluorescein Na salt pH 7.5, was added to one of the microbe-containing wells (Well4) and one of the saline wells (Well3). Plates were incubated, shaking at 35° C. for 4 hours and fluorescence of the wells was read at […]. The values reported were calculated to determine the hydrolysis of imipenem by the microbes using Equation 1.

K. pneumoniae = experiment: as above; details: 5 mg/mL imipenem solution added 1:1, 4 hours
Source text: as §1, §2, §3

E coli [1] = experiment: Carbapenemase assay at various concentrations of imipenem (Example 3); details: within 4 hours
Source text: as §1
(§4) Example 3. Microbes were prepared by diluting colonies into saline to reach a McFarland value of 0.5, which was verified using a spectrophotometer. 25 μL of the microbe solution was added to each of 2 wells in a 384-well plate. 25 μL of saline was added to 2 separate wells on the plate. 25 μL of an imipenem solution containing imipenem, 0.1 mM ZnSO4, and 10 μm Fluorescein Na Salt, pH 8, was added to one of the microbe-containing wells (Well2) and one of the saline wells […]. 25 μL of a negative control solution containing 0.1 mM ZnSO4, and 10 μM Fluorescein Na Salt, pH 7.5, was added to one of the microbe containing wells (Well4) and one of the saline wells (Well3). Plates were incubated, shaking at 35° C. for 3 hours and fluorescence of the wells was read at Em=490/Ex=510. This organization of the assay was performed multiple times, varying the concentration of imipenem in solution. The assay was run with final imipenem concentrations of 50 μg/mL, 125 μg/mL, 250 μg/mL, 500 μg/mL, 1250 μg/mL, and 2500 μg/mL. The values reported were calculated to determine the hydrolysis of imipenem by the microbes using Equation 1.

K pneumoniae [2] = experiment: as above; parameters: unit not given here; details: within 4 hours
Source text: as §1, §4

E coli [3] = experiment: Carbapenemase assay performed with dried reagents (Example 4); details: E coli ATCC 25922, known carbapenemase none, 300 μg/mL imipenem, 4 hours
Source text: as §1
(§5) Example 4. Microbes were prepared by diluting colonies into saline to reach a McFarland value of 0.5, which was verified using a spectrophotometer. 100 μL of the microbe solution was added to each of 2 wells in a vacuum-dried 96-well plate (Well2, Well4). 100 μL of saline was added to 2 separate wells on the plate (Well1 and Well3). Following addition of microbial or saline solutions, the final concentrations of the contents in each well were: 300 μg/mL imipenem, 0.05 mM ZnSO4, and 10 μM Fluorescein Na Salt, pH 7.8, (Well1, Well2); only 0.05 mM ZnSO4 and 10 μM Fluorescein Na Salt, pH 7.8, were present in the third and four wells (Well3, Well4). Plates were incubated, shaking at 35° C. for 4 hours and fluorescence of the wells was read at Em=490/Ex=510. The values reported were calculated to determine the hydrolysis of imipenem by the microbes using Equation 1.

K pneumoniae [4] = experiment: as above; details: 4 hours
Source text: as §1, §5

C[C@]1(Cn2ccnn2)[C@H](C(=O)O)N2C(=O)C[C@H]2S1(=O)=O [tazobactam]
inhibitor activity against strains with known beta lactamases (reduction in nitrocefin absorbance at 490 nm) (beta lactamase): active

C[C@@H](O)[C@H]1C(=O)N2C(C(=O)O)=C(SCCN=CN)C[C@H]12 [imipenem]
Carbapenemase Activity (E. coli; E. coli 25922, known carbapenemase none): −2106.4115 | Carbapenemase Activity (E. coli; E. coli AEL18, known carbapenemase none): −1551.4885 | Carbapenemase Activity (E. coli; E. coli AEL19, known carbapenemase none): −696.4825 | Carbapenemase Activity (E. coli; E. coli AEL 20, known carbapenemase none): −882.3165 | Carbapenemase Activity (E. coli; E. coli AR0346, known carbapenemase none, ESBL +): −2560.861 | Carbapenemase Activity (E. coli; E. coli AR0348, known carbapenemase none): −2960.1665 | Carbapenemase Activity (E. coli; E. coli AR0349, known carbapenemase none, ESBL +): −2861.008 | Carbapenemase Activity (E. coli; E. coli CDC BIT 01, known carbapenemase KPC): 8803.9255 | Carbapenemase Activity (E. coli; E. coli CDC CNP 27, known carbapenemase none, ESBL +): −2401.2335 | Carbapenemase Activity (E. coli; E. coli CDC CNP 38, known carbapenemase NDM): 19534.8825 | Carbapenemase Activity (E. coli; E. coli CDC CNP 54, known carbapenemase none, Amp beta lactamase): −1950.443 | Carbapenemase Activity (E. coli; E. coli CDC CNP 73, known carbapenemase KPC): 3480.1845 | Carbapenemase Activity (E. coli; E. coli CDC CRE 03, known carbapenemase KPC-3): 7149.729 | Carbapenemase Activity (E. coli; E. coli CDC CRE 07, known carbapenemase NDM): 27447.359 | Carbapenemase Activity (E. coli; E. coli CDC CRE 17, known carbapenemase NDM): 36400.9235 | Carbapenemase Activity (E. coli; E. coli CDC CRE 26, known carbapenemase NDM): 41326.61 | Carbapenemase Activity (E. coli; E. coli SML 19, known carbapenemase none): −2540.0545 | Carbapenemase Activity (E. coli; E. coli SML20, known carbapenemase none): −2734.3825 | Carbapenemase Activity (E. coli; E. coli TRICORE 71, known carbapenemase none): −1138.2225 | Carbapenemase Activity (E. coli; E. coli TRICORE 72, known carbapenemase none): −2554.797 | Carbapenemase Activity (K. pneumoniae; K. pneumoniae 700603, known carbapenemase none): −2659.8725 | Carbapenemase Activity (K. pneumoniae; K. pneumoniae CDC CNP 03, known carbapenemase IMP): 3662.106 | Carbapenemase Activity (K. pneumoniae; K. pneumoniae CDC CNP 08, known carbapenemase OXA-181): 1323.2385 | Carbapenemase Activity (K. pneumoniae; K. pneumoniae CDC CNP 09, known carbapenemase VIM): 2315.76 | Carbapenemase Activity (K. pneumoniae; K. pneumoniae SML86, known carbapenemase none): −1861.1485 | Carbapenemase Activity (K. pneumoniae; K. pneumoniae SML87, known carbapenemase none): −3075.4205 | Carbapenemase Activity in various concentrations of imipenem (E coli [1]; E coli AR 69, known carbapenemase NDM, 50 μg/mL imipenem): 1111 | Carbapenemase Activity in various concentrations of imipenem (E coli [1]; E coli AR 69, known carbapenemase NDM, 125 μg/mL imipenem): 3367 | Carbapenemase Activity in various concentrations of imipenem (E coli [1]; E coli AR 69, known carbapenemase NDM, 250 μg/mL imipenem): 2827 | Carbapenemase Activity in various concentrations of imipenem (E coli [1]; E coli AR 69, known carbapenemase NDM, 500 μg/mL imipenem): 2300.5 | Carbapenemase Activity in various concentrations of imipenem (E coli [1]; E coli AR 69, known carbapenemase NDM, 1250 μg/mL imipenem): 1908.5 | Carbapenemase Activity in various concentrations of imipenem (E coli [1]; E coli AR 69, known carbapenemase NDM, 2500 μg/mL imipenem): 1902.5 | Carbapenemase Activity in various concentrations of imipenem (E coli [1]; E coli AR 114, known carbapenemase KPC3, 50 μg/mL imipenem): 930.5 | Carbapenemase Activity in various concentrations of imipenem (E coli [1]; E coli AR 114, known carbapenemase KPC3, 125 μg/mL imipenem): 3793.5 | Carbapenemase Activity in various concentrations of imipenem (E coli [1]; E coli AR 114, known carbapenemase KPC3, 250 μg/mL imipenem): 3342.5 | Carbapenemase Activity in various concentrations of imipenem (E coli [1]; E coli AR 114, known carbapenemase KPC3, 500 μg/mL imipenem): 2784.5 | Carbapenemase Activity in various concentrations of imipenem (E coli [1]; E coli AR 114, known carbapenemase KPC3, 1250 μg/mL imipenem): 2173.5 | Carbapenemase Activity in various concentrations of imipenem (E coli [1]; E coli AR 114, known carbapenemase KPC3, 2500 μg/mL imipenem): 1825.5 | Carbapenemase Activity in various concentrations of imipenem (E coli [1]; E coli ATCC 25922, known carbapenemase none, 50 μg/mL imipenem): −70.5 | Carbapenemase Activity in various concentrations of imipenem (E coli [1]; E coli ATCC 25922, known carbapenemase none, 125 μg/mL imipenem): −522 | Carbapenemase Activity in various concentrations of imipenem (E coli [1]; E coli ATCC 25922, known carbapenemase none, 250 μg/mL imipenem): −599.5 | Carbapenemase Activity in various concentrations of imipenem (E coli [1]; E coli ATCC 25922, known carbapenemase none, 500 μg/mL imipenem): −558.5 | Carbapenemase Activity in various concentrations of imipenem (E coli [1]; E coli ATCC 25922, known carbapenemase none, 1250 μg/mL imipenem): −463.5 | Carbapenemase Activity in various concentrations of imipenem (E coli [1]; E coli ATCC 25922, known carbapenemase none, 2500 μg/mL imipenem): −282 | Carbapenemase Activity in various concentrations of imipenem (K pneumoniae [2]; K pneumoniae AR 34, known carbapenemase IMP, 50 μg/mL imipenem): 1034.5 | Carbapenemase Activity in various concentrations of imipenem (K pneumoniae [2]; K pneumoniae AR 34, known carbapenemase IMP, 125 μg/mL imipenem): 2776.5 | Carbapenemase Activity in various concentrations of imipenem (K pneumoniae [2]; K pneumoniae AR 34, known carbapenemase IMP, 250 μg/mL imipenem): 2456.5 | Carbapenemase Activity in various concentrations of imipenem (K pneumoniae [2]; K pneumoniae AR 34, known carbapenemase IMP, 500 μg/mL imipenem): 1807.5 | Carbapenemase Activity in various concentrations of imipenem (K pneumoniae [2]; K pneumoniae AR 34, known carbapenemase IMP, 1250 μg/mL imipenem): 1148 | Carbapenemase Activity in various concentrations of imipenem (K pneumoniae [2]; K pneumoniae AR 34, known carbapenemase IMP, 2500 μg/mL imipenem): 637.5 | Carbapenemase Activity in various concentrations of imipenem (K pneumoniae [2]; K pneumoniae ATCC BAA-2342, known carbapenemase KPC, 50 μg/mL imipenem): 1817 | Carbapenemase Activity in various concentrations of imipenem (K pneumoniae [2]; K pneumoniae ATCC BAA-2342, known carbapenemase KPC, 125 μg/mL imipenem): 4702.5 | Carbapenemase Activity in various concentrations of imipenem (K pneumoniae [2]; K pneumoniae ATCC BAA-2342, known carbapenemase KPC, 250 μg/mL imipenem): 4270.5 | Carbapenemase Activity in various concentrations of imipenem (K pneumoniae [2]; K pneumoniae ATCC BAA-2342, known carbapenemase KPC, 500 μg/mL imipenem): 3708 | Carbapenemase Activity in various concentrations of imipenem (K pneumoniae [2]; K pneumoniae ATCC BAA-2342, known carbapenemase KPC, 1250 μg/mL imipenem): 3251 | Carbapenemase Activity in various concentrations of imipenem (K pneumoniae [2]; K pneumoniae ATCC BAA-2342, known carbapenemase KPC, 2500 μg/mL imipenem): 3114.5 | Carbapenemase Activity (E coli [3]): −6116 | Carbapenemase Activity (K pneumoniae [4]; K pneumoniae ATCC 700603, known carbapenemase none, 300 μg/mL imipenem): −2026 | Carbapenemase Activity (K pneumoniae [4]; K pneumoniae ATCC BAA-1705, known carbapenemase KPC2, 300 μg/mL imipenem): 19742 | Carbapenemase Activity (K pneumoniae [4]; K pneumoniae ATCC BAA-2814, known carbapenemase KPC3, 300 μg/mL imipenem): 18057

O=C(O)[C@H]1/C(=C/CO)O[C@@H]2CC(=O)N21 [clauvulanate]
inhibitor activity against strains with known beta lactamases (reduction in nitrocefin absorbance at 490 nm) (beta lactamase): active
